Experimental data from ChEMBL document CHEMBL3132769, “Fragment growing to retain or alter the selectivity of anchored kinase hinge-binding fragments” (Medchemcomm, 2014).

Key:
[1] = tested on: Tyrosine-protein kinase ABL1 (Homo sapiens), P00519 [Q252H]; experiment: Inhibition of human truncated ABL Q252H mutant expressed in baculovirus assessed as substrate phosphorylation using fluorescence-labelled peptides as substrate at 9 uM after 90 mins by microfluidic peptide phosphorylation assay
[2] = molecular target: Protein kinase C eta type (Homo sapiens) (UniProt P24723); experiment: Inhibition of human truncated PKC eta expressed in baculovirus assessed as substrate phosphorylation using fluorescence-labelled peptides as substrate at 9 uM after 90 mins by microfluidic peptide phosphorylation assay
[3] = molecular target: T1, Serine/threonine-protein kinase Nek2 (Homo sapiens) (UniProt P51955); experiment: Inhibition of human full length NEK2 expressed in baculovirus assessed as substrate phosphorylation using fluorescence-labelled peptides as substrate at 9 uM after 90 mins by microfluidic peptide phosphorylation assay
T1 sequence (whole entry): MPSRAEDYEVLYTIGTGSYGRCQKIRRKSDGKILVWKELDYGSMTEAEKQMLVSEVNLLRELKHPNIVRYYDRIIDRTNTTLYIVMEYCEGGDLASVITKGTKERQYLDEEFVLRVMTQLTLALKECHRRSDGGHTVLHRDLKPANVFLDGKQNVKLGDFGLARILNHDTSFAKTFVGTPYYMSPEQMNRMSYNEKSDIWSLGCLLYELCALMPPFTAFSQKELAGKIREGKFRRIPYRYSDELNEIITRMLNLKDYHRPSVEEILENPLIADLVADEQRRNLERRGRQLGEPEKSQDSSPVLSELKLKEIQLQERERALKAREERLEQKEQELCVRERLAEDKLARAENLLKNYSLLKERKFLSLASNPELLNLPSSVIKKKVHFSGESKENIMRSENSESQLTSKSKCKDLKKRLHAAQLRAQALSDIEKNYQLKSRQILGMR

[4] = molecular target: Fibroblast growth factor receptor 4 (Homo sapiens) (UniProt P22455); experiment: Inhibition of human FGFR4 catalytic domain expressed in baculovirus assessed as substrate phosphorylation using fluorescence-labelled peptides as substrate at 9 uM after 90 mins by microfluidic peptide phosphorylation assay
[5] = molecular target: T2, Calcium/calmodulin-dependent protein kinase type IV (Homo sapiens) (UniProt Q16566); experiment: Inhibition of human full length CAMK4 expressed in baculovirus assessed as substrate phosphorylation using fluorescence-labelled peptides as substrate at 95 uM after 90 mins by microfluidic peptide phosphorylation assay
T2 sequence (whole entry): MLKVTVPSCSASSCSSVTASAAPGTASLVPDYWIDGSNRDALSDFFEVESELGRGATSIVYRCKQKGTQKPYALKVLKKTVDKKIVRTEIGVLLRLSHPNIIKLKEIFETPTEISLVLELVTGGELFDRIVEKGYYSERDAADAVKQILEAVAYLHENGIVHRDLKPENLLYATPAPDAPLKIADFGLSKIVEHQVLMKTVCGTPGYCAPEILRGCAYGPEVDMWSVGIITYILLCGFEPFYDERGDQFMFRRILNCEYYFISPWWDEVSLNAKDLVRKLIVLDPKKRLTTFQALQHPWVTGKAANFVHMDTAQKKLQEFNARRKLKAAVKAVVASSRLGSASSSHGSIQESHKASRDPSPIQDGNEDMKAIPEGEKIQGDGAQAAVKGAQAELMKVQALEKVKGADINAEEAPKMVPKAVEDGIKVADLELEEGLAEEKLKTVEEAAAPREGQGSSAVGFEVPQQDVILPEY

[6] = molecular target: Serine/threonine-protein kinase MARK1 (Homo sapiens) (UniProt Q9P0L2); conditions: 0.1 uM
Description: Inhibition of human full length MARK1 expressed in baculovirus assessed as substrate phosphorylation using fluorescence-labelled peptides as substrate at 0.1 uM after 90 mins by microfluidic peptide phosphorylation assay

[7] = molecular target: Ribosomal protein S6 kinase alpha-4 (Homo sapiens) (UniProt O75676); experiment: Inhibition of human full length MSK2 expressed in baculovirus assessed as substrate phosphorylation using fluorescence-labelled peptides as substrate at 420 uM after 90 mins by microfluidic peptide phosphorylation assay
[8] = molecular target: T3, Mitogen-activated protein kinase 13 (Homo sapiens) (UniProt O15264); experiment: Inhibition of human full length p38 delta expressed in Escherichia coli cell assessed as substrate phosphorylation using fluorescence-labelled peptides as substrate at 0.2 uM after 90 mins by microfluidic peptide phosphorylation assay
T3 sequence (whole entry): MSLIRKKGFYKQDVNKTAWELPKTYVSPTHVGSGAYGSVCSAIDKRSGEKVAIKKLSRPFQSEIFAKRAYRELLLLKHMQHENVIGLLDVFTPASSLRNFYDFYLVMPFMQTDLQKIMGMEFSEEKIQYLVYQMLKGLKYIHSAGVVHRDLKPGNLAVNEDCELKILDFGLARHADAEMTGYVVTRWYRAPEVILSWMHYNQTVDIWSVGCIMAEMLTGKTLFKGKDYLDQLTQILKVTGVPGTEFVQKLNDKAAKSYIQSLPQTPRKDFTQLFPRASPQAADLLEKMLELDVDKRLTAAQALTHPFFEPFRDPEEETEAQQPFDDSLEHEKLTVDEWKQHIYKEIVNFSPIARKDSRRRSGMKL

[9] = molecular target: Cyclin-dependent kinase 2 (Homo sapiens) (UniProt P24941); experiment: Inhibition of human full length CDK2 expressed in baculovirus assessed as substrate phosphorylation using fluorescence-labelled peptides as substrate at 0.2 uM after 90 mins by microfluidic peptide phosphorylation assay
[10] = molecular target: T4, cGMP-dependent protein kinase 1 (Homo sapiens) (UniProt Q13976); experiment: Inhibition of human full length PKG-1beta expressed in baculovirus assessed as substrate phosphorylation using fluorescence-labelled peptides as substrate at 0.2 uM after 90 mins by microfluidic peptide phosphorylation assay
T4 sequence (whole entry): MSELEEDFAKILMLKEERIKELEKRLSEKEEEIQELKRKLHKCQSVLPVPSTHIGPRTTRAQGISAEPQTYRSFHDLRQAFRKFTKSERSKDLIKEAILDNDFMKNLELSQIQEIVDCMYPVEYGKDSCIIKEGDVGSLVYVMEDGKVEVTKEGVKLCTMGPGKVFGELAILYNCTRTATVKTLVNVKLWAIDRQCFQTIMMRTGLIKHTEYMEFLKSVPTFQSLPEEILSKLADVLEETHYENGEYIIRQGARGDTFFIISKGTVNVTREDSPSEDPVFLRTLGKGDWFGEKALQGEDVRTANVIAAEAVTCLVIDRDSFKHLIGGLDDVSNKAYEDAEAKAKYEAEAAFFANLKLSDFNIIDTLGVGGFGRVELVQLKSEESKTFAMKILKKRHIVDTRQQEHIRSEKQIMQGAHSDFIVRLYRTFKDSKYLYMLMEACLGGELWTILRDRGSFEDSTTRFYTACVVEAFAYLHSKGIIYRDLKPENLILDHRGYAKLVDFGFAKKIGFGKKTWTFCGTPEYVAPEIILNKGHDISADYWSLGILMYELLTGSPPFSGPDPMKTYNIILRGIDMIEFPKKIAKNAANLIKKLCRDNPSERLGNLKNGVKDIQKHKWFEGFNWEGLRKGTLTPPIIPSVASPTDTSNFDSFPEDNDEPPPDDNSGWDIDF

[11] = molecular target: Calcium/calmodulin-dependent protein kinase type II subunit delta (Homo sapiens) (UniProt Q13557); experiment: Inhibition of human full length CAMK2D expressed in baculovirus assessed as substrate phosphorylation using fluorescence-labelled peptides as substrate at 2 uM after 90 mins by microfluidic peptide phosphorylation assay
Sequence of Calcium/calmodulin-dependent protein kinase type II subunit delta (Homo sapiens) (Q13557 whole entry): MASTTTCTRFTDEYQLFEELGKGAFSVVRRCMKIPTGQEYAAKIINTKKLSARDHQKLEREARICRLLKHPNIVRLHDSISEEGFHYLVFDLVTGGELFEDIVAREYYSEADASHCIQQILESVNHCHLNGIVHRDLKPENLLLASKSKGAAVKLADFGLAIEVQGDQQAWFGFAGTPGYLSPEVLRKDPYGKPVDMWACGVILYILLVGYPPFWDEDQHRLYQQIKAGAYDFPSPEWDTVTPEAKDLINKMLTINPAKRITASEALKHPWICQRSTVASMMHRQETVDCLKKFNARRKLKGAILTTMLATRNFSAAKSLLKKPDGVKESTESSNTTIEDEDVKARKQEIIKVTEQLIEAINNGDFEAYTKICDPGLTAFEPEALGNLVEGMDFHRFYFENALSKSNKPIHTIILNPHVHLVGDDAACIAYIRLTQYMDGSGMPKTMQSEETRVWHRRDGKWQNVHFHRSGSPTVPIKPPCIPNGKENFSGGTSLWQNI

Sequence of Protein kinase C eta type (Homo sapiens) (P24723 whole entry, the tested form may be a part): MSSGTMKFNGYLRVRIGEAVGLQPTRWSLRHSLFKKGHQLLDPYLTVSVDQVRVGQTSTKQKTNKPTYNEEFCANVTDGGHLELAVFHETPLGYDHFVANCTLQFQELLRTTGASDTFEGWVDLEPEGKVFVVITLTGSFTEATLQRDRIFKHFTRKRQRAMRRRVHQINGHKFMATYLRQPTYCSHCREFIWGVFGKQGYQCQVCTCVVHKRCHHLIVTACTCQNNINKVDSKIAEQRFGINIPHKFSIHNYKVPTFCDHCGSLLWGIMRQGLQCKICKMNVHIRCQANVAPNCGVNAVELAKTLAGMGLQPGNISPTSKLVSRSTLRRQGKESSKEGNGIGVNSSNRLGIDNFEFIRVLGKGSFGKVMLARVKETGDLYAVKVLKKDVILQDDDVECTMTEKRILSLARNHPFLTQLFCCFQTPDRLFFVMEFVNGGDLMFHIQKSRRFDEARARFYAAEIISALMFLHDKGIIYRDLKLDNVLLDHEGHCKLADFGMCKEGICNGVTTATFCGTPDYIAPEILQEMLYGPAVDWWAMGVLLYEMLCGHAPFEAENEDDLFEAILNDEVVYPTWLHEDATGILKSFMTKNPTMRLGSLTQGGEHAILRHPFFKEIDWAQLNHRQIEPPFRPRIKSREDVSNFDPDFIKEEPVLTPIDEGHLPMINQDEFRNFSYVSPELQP
Sequence of Serine/threonine-protein kinase MARK1 (Homo sapiens) (Q9P0L2 whole entry, looked up): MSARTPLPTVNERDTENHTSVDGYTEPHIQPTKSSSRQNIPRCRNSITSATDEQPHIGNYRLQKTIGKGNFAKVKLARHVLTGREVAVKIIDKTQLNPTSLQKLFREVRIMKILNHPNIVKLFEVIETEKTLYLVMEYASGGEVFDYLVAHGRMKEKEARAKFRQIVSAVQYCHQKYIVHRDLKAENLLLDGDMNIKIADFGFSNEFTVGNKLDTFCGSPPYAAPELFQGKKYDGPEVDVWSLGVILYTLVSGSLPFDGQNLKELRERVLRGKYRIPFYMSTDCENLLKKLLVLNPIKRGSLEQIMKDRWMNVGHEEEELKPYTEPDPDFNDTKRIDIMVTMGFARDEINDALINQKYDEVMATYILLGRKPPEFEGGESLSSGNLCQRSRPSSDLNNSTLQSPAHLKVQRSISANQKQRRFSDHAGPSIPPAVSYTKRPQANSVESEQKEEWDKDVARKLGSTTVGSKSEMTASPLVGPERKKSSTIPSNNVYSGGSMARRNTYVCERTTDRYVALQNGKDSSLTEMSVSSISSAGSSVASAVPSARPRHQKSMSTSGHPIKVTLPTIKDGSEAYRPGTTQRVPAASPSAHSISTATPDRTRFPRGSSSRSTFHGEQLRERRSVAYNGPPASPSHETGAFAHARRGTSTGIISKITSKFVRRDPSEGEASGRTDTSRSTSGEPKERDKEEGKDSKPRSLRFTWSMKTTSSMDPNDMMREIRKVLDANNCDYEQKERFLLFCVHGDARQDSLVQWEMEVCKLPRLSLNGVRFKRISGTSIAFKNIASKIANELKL
Sequence of Fibroblast growth factor receptor 4 (Homo sapiens) (P22455 22-802 limits assumed): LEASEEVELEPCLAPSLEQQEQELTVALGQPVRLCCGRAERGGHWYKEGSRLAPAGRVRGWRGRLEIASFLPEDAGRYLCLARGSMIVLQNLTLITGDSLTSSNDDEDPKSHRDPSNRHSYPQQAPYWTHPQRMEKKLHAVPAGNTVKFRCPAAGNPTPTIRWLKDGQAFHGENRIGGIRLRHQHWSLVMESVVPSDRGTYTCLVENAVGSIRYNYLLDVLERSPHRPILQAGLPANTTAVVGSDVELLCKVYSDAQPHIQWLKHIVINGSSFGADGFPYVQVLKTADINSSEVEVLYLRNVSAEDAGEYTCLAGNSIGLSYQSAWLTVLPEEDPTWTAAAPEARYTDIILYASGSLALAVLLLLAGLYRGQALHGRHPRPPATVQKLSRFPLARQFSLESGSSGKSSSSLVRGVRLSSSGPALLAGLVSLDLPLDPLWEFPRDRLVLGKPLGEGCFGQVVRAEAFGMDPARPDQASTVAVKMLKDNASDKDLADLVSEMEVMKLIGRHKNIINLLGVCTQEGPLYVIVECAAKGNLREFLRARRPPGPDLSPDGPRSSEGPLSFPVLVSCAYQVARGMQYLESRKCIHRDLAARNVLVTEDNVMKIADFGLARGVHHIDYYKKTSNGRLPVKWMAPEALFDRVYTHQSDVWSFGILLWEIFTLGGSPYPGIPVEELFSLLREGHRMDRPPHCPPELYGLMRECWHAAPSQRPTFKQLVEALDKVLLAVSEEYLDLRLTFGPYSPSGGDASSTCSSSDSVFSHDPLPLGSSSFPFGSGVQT
Sequence of Ribosomal protein S6 kinase alpha-4 (Homo sapiens) (O75676 whole entry, looked up): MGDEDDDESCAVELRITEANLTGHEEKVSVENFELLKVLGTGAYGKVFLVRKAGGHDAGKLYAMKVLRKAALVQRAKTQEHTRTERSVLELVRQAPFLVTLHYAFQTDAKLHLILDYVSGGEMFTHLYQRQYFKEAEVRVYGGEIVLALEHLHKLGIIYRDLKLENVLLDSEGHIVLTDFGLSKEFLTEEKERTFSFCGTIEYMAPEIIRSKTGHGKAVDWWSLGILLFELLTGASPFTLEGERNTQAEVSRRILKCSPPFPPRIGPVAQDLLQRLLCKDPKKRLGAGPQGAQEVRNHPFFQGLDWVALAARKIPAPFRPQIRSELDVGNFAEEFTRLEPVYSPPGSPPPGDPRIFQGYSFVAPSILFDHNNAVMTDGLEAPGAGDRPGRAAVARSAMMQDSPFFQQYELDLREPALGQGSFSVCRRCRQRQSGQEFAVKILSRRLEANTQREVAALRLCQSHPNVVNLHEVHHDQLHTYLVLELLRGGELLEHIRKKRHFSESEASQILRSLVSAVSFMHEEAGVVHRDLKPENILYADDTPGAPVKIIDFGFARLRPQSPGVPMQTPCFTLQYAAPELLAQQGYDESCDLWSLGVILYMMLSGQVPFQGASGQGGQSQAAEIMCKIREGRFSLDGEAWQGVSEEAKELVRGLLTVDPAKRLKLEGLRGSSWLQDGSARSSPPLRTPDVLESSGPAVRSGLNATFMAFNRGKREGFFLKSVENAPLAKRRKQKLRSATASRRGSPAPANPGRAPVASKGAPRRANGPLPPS

In the case of `NCC1CN(c2ncnc3[nH]c4cnccc4c23)CCO1` (stereo unspecified), the inhibition [1] is reported as 6%, the inhibition [2] is reported as 54.5% and the inhibition [3] is reported as 6%. For the same compound, the inhibition [4] was 0%.
`NCCc1ccc(-c2ncnc3[nH]cnc23)cc1` gave an inhibition [5] of 85%.
Work on `C[C@H](CN(C)C)Oc1nc(Nc2cc3cccc(Cl)c3cn2)cnc1C#N` yielded an inhibition [6] of 0%.
`c1nc(N2CCOCC2)c2nc[nH]c2n1` showed an inhibition [7] of 76%.
`Clc1ccc(C2(c3ccc(-c4ncnc5[nH]cnc45)cc3)CCNCC2)cc1` was tested, and the inhibition [8] was 11%, the inhibition [9] was 7.5% and the inhibition [10] was 88.5%.
Work on `NC1CCN(c2ncnc3[nH]ccc23)CC1` yielded an inhibition [11] of 8%.
